Source: patent US6696460B2, “Tetrahydropyridoethers” (Atlanta Pharma AG, priority 1998, dated 2004)

Tested on: not given
Experiment: not given
Conditions: not given

melting point [°C]	Structure (SMILES)
161 to 162	CO[C@H]1c2ccn3c(C)c(C)nc3c2N[C@@H](c2ccccc2)[C@@H]1O [Example 1B, (7S, 8S, 9S)-2,3-Dimethyl-8-hydroxy-7-methoxy-9-phenyl-7,8,9,10-tetrahydro-imidazo[1,2-h]-[1,7]naphthyridine]
188 to 190	CCO[C@@H]1c2ccn3c(C)c(C)nc3c2N[C@H](c2ccccc2)[C@H]1O [Example 3, (7R, 8R, 9R)-2,3-Dimethyl-7-ethoxy-8-hydroxy-9-phenyl-7,8,9,10-tetrahydro-imidazo[1,2-h]-[1,7]naphthyridine]
168 to 169	Cc1nc2c3c(ccn2c1C)[C@H](OC(C)C)[C@H](O)[C@@H](c1ccccc1)N3 [Example 7, (7S, 8R, 9R)-2,3-Dimethyl-8-hydroxy-9-phenyl-7-(2-propoxy)-7,8,9,10-tetrahydro-imidazo[1,2-h][1,7]naphthyridine]
171 to 172	CO[C@@H]1c2ccn3c(C)c(C)nc3c2N[C@@H](c2ccccc2)[C@@H]1O [Example 2B, (7R, 8S, 9S)-2,3-Dimethyl-8-hydroxy-7-methoxy-9-phenyl-7,8,9,10-tetrahydro-imidazo[1,2-h]-[1,7]naphthyridine]

Tested on: pentagastrin-stimulated acid secretion of the perused rat stomach
Experiment: Secretion-inhibiting action on the perfused rat stomach (pentagastrin-stimulated, in vivo)
Conditions: anesthetized CD rat, dose 3 μmol/kg i.v.
Description: Testing of the Secretion-Inhibiting Action on the Perfused Rat Stomach
The abdomen of anesthetized rats (CD rat, female, 200-250 g; […] i.m. urethane) was opened after tracheotomy by means of a median upper abdominal incision and a PYC catheter was fixed transorally in the esophagus and another via the pylorus such that the ends of the tube just projected into the gastric lumen. The catheter leading from the pylorus led outwards into the right abdominal wall through a side opening.
After thorough rinsing (about 50-100 ml), warm physiological NaCl solution at 37° C. was continuously passed through the stomach (0.5 ml/min. pH 6.8-6.9; Braun-Unita I). The pH (pH meter 632, glass electrode EA 147; φ=5 mm, Metrohm) and, by titration with a freshly prepared 0.01 N NaOH solution to pH 7 (Dosimat 665 Metrohm), the secreted HCl were determined in the effluent in each case collected at an interval of 15 minutes.
The gastric secretion was stimulated by continuous infusion of 1 μg/kg (=1.65 ml/h) of I.v. pentagastrin (left femoral vein) about 30 min after the end of the operation (i.e after determination of 2 preliminary fractions). The substances to be tested were administered intravenously in 1 ml/kg liquid volumes 60 min after the start of the pentagastrin continuous infusion.
The body temperature of the animals was kept at a constant 37.8-38° C. by infrared irradiation and heat pads (automatic, stepless control by means of a rectal temperature sensor).

Structure (SMILES)	Inhibition of acid secretion [%]
CO[C@@H]1[C@@H](c2ccccc2)Nc2c(ccn3c(C)c(C)nc23)[C@H]1OC [Example 8]	100
CO[C@@H]1c2ccn3c(C)c(C)nc3c2N[C@H](c2ccccc2)[C@H]1O [Example 1]	100
COCCO[C@H]1c2ccn3c(C)c(C)nc3c2N[C@H](c2ccccc2)[C@H]1O [Example 6, (7S, 8R, 9R)-2,3-Dimethyl-8-hydroxy-7-(2-methoxyethoxy)-9-phenyl-7,8,9,10-tetrahydro-imiazo[1,2-h][1,7]naphthyridine]	100
CO[C@H]1c2ccn3c(C)c(C)nc3c2N[C@H](c2ccccc2)[C@H]1O [Example 2, (7S, 8R, 9R)-2,3-Dimethyl-8-hydroxy-7-methoxy-9-phenyl-7,8,9,10-tetrahydro-imidazo[1,2-h]-[1,7]naphythyridine]	100
CCO[C@@H]1c2ccn3c(C)c(C)nc3c2N[C@H](c2ccccc2)[C@H]1O [Example 4, (7R, 8R, 9R)-2,3Dimethyl-7-ethoxy-8-hydroxy-phenyl-7,8,9,10-tetrahydro-imidazo[1,2-h]-[1,7]naphythryridine]	100

Same assay, conditions: iv, anesthetized CD rat, dose 3 μmol/kg i.v.

Structure (SMILES)	inhibition at 3 µmol/kg [%]
COCCO[C@@H]1c2ccn3c(C)c(C)nc3c2N[C@H](c2ccccc2)[C@H]1O [Example 5, (7R, 8R, 9R)-2,3-Dimethyl-8-hydroxy-7-(2-methoxyethoxy)-9-phenyl-7,8,9,10-tetrahydro-imidazo[1,2-h][1,7]naphthyridine]	100
CCO[C@@H]1c2ccn3c(C)c(C)nc3c2N[C@H](c2ccccc2)[C@H]1O [Example 3, (7R, 8R, 9R)-2,3-Dimethyl-7-ethoxy-8-hydroxy-9-phenyl-7,8,9,10-tetrahydro-imidazo[1,2-h]-[1,7]naphthyridine]	100
Cc1nc2c3c(ccn2c1C)[C@H](OC(C)C)[C@H](O)[C@@H](c1ccccc1)N3 [Example 7, (7S, 8R, 9R)-2,3-Dimethyl-8-hydroxy-9-phenyl-7-(2-propoxy)-7,8,9,10-tetrahydro-imidazo[1,2-h][1,7]naphthyridine]	100
